Results on five molecules are retold here after ChEMBL document CHEMBL1201862, “PubChem BioAssay data set” (2004).

Counter-ions that a name gives are not always drawn. The source made the active and inactive calls.

Assay [1] concerns the target T1, RNA-binding protein pos-1 (Caenorhabditis elegans, UniProt G5EF15).
T1 sequence (G5EF15 whole entry): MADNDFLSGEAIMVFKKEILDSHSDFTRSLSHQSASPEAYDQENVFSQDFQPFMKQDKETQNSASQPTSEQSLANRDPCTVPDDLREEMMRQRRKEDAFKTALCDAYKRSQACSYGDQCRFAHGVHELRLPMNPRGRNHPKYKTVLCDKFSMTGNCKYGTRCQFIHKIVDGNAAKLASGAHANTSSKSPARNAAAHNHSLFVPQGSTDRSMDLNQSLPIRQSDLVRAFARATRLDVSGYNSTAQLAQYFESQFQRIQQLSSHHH
Briefly: inhibitors of POS-1/mex-3 RNA binding, dose response, biochemical, fluorescence polarization (AID 1964).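 Also: purified POS-1 fused to maltose binding protein made in E. coli; potency of compounds blocking POS-1 binding to fluorescent RNA.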 For orientation: Polarisation of emitted light reports the rotation of a fluorescent probe.

The target in assay [2] is T2, SUMO-activating enzyme (Homo sapiens, UniProt Q9UBT2). Briefly: SUMOylation inhibitor hit validation, confirmation, SUMOylation inhibitor project, biochemical, AlphaScreen (AID 2018). It is filed as functional. On the technique in general: In Alpha technology, singlet oxygen from a donor bead excites a nearby acceptor bead.
Assay [3] has as its target T3, Zinc finger protein mex-5 (Caenorhabditis elegans, UniProt Q9XUB2).
T3 sequence (Q9XUB2 whole entry): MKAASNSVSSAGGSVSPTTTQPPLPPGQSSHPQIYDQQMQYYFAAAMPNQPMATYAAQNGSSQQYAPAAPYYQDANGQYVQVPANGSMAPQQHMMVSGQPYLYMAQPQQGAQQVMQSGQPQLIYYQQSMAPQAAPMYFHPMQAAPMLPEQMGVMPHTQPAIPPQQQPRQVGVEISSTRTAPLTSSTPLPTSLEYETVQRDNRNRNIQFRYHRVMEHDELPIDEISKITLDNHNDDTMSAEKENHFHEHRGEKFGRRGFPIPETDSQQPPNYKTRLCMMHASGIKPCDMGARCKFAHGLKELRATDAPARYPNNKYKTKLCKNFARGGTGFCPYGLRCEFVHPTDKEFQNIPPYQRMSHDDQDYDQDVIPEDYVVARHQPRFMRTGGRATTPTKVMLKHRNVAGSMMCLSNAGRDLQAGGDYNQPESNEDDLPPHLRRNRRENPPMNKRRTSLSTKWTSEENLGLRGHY
Briefly: MEX-5/TCR-2 RNA interaction inhibitors, dose response, biochemical, C. elegans, fluorescence polarization (AID 1960).

Assay [4] deals with T2, SUMO-activating enzyme. Briefly: inhibitors of in vitro SUMOylation cascade, primary screen, biochemical, HTRF, uHTS (AID 2006). Type of assay: protein-complex assay. (Time-resolved FRET reads energy transfer from a long-lived donor to a nearby acceptor.)
Assay [5] deals with Intestinal-type alkaline phosphatase (Mus musculus, UniProt P24822). The assay is described as follows: PubChem AID 488874. It is filed as functional.
The target in assay [6] is T4, Intestinal-type alkaline phosphatase (Homo sapiens, UniProt P09923). Briefly: human intestinal alkaline phosphatase activators, dose response, biochemical, luminescence, uHTS hits (AID 463120). It is filed as functional.
Assay [7] concerns the target T4, Intestinal-type alkaline phosphatase. Briefly: human IAP activators, dose response, biochemical, luminescent, uHTS hits, set 2 (AID 488817).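 Also: potency of activators that raise enzyme activity.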 It is filed as functional.
Assay [8] addresses T5, Alkaline phosphatase, tissue-nonspecific isozyme (Homo sapiens, UniProt P05186).
T5 sequence (P05186 whole entry): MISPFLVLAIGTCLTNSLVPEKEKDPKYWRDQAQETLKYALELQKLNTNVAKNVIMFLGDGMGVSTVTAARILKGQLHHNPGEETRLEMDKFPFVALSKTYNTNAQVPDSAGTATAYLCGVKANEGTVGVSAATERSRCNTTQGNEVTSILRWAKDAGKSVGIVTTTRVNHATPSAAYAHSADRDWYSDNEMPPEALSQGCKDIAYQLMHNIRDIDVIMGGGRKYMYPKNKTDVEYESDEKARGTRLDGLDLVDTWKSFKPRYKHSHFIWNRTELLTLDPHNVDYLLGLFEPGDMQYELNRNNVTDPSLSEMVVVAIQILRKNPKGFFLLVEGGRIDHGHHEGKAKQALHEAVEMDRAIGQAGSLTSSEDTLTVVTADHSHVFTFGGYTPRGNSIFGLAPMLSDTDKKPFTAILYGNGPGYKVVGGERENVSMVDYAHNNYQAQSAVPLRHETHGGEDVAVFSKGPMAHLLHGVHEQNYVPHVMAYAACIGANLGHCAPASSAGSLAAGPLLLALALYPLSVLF
The assay is described as follows: TNAP enzyme activators, dose response, selectivity assay for human IAP activator project, biochemical, TNAP isozyme, human IAP uHTS hits (AID 488886).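 Also: potency of compounds raising TNAP activity as a selectivity check on IAP activators.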 Type of assay: functional.

For assay [9], the target named is T6, Polyadenylate-binding protein 1 (Homo sapiens, UniProt P11940). The assay is described as follows: PABP1 MLLE–PAM2 interaction inhibitors, dose response, miRNA deadenylation inhibitor project, biochemical, fluorescence polarization, Cy5-PAM2 peptide, secondary (AID 602260). Type of assay: functional. The conditions noted are these: read-out: IC50_Mean.
The target in assay [10] is T6, Polyadenylate-binding protein 1. Briefly: PABP1 MLLE–PAM2 binding inhibitor potency, dose response, biochemical, fluorescence polarization, FITC-PAM2 peptide (AID 602259). It is filed as functional. The following applies: read-out: IC50_Mean.
The nature of assay [11]: AlphaScreen signal interference compounds, dose response, artefact control for ARNT-TACC3 interaction inhibitor project, biochemical, luminescence, cherry-pick (AID 651705).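 Also: AlphaScreen bead proximity signal that flags compounds interfering with the detection technology; potency reflects signal decrease which marks the compound as an assay artifact.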 It is filed as functional.
Assay [12] has as its target T7, Mannose-6-phosphate isomerase (Homo sapiens, UniProt P34949).
T7 sequence (P34949 whole entry): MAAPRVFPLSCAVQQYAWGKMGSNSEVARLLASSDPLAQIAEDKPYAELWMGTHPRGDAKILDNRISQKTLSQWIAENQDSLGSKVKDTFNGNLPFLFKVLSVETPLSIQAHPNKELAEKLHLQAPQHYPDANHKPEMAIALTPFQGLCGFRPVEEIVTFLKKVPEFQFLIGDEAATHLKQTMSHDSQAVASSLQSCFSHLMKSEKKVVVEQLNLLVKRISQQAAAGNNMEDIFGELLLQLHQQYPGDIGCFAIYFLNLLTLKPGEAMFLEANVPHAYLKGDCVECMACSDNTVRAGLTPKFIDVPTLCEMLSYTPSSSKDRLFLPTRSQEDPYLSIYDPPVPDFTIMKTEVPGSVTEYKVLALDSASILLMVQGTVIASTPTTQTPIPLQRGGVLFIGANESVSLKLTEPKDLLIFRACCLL
The assay is described as follows: Confirmation of compounds inhibiting phosphomannose isomerase (PMI) via a fluorescence intensity assay using a high concentration of mannose 6-phosphate. [Related pubchem assays (depositor defined):AID1209, AID1220, AID1545, AID1553, AID1620].

The target of the next assay is T8, Phosphomannomutase 2 (Homo sapiens, UniProt O15305).
T8 sequence (O15305 whole entry): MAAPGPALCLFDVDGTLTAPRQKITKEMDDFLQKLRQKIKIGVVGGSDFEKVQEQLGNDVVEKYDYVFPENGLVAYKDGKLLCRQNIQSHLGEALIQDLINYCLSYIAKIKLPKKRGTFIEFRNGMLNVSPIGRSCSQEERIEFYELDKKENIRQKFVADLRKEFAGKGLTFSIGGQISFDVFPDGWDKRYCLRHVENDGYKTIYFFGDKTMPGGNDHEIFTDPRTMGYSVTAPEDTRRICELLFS
The assay is described as follows: Counter screen SAR assay for PMM2 inhibitors via a fluorescence intensity assay. [Related pubchem assays (depositor defined):AID1545, AID1574].

Assay [13] concerns the target Phosphoethanolamine/phosphocholine phosphatase (Homo sapiens, UniProt Q8TCT1). The assay is described as follows: SAR assay for compounds that inhibit PHOSPHO1. [Related pubchem assays (depositor defined):AID1545, AID1565, AID1574].
Assay [14] addresses T5, Alkaline phosphatase, tissue-nonspecific isozyme. Briefly: human TNAP enzyme inhibitors, SAR follow-up, biochemical, luminescent, dose response (AID 1056).
The nature of assay [15]: HeLa cell cytotoxicity, dose response, cytotoxicity control for MgcRacGAP inhibitor project (AID 624300). It is filed as functional.
Assay [16] addresses T9, Rac GTPase-activating protein 1 (Homo sapiens, UniProt Q9H0H5).
T9 sequence (Q9H0H5 whole entry): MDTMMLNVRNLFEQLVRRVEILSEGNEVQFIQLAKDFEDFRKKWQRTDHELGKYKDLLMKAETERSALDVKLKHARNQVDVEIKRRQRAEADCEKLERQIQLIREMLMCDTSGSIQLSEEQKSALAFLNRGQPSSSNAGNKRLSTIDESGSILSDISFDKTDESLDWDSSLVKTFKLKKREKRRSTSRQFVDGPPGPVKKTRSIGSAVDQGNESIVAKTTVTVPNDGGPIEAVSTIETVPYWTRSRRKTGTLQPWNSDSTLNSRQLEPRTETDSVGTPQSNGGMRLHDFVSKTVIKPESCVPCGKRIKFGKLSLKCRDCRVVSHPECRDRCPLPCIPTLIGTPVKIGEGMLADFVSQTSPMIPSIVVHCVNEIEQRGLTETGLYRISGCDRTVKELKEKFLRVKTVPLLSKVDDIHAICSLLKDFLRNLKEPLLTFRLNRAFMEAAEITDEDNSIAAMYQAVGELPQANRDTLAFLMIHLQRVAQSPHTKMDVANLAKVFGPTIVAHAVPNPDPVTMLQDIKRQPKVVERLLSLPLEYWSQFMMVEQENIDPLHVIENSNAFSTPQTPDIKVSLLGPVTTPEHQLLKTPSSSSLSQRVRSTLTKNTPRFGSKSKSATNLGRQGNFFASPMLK
The assay is described as follows: MgcRacGAP GTPase-activating activity inhibitors, confirmation, biochemical, ADP Hunter fluorescence, primary and confirmatory (AID 624330). Type of assay: functional.

The nature of assay [17]: NIH-3T3 fibroblast cytotoxicity, dose response, cytotoxicity control, cell-based, fluorescence, Alamar Blue, secondary assay (AID 2327).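 Also: NIH-3T3 mouse fibroblasts cultured with fluconazole at 8 µg/mL.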 It is filed as functional.
Assay [18] is described as follows: C. albicans growth with fluconazole, confirmation, fluorescence, retest (AID 2467). It is filed as functional, cell-based.
Assay [19] is described as follows: inhibitors of intracellular T. cruzi replication, confirmation, NIH3T3 host cells, beta-gal luminescence (AID 2044).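 Also: intracellular parasites grown in NIH/3T3 mouse fibroblasts as host cells; luminescent beta-galactosidase reporter signal from transgenic T. cruzi replicating inside host cells; inhibitors lower the luminescence signal.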 Type of assay: functional, cell-based.
Assay [20] is described as follows: growth suppression of PTEN-null colon cells, dose response, cell-based, HCT116 PTEN knockout (AID 1047).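 Also: HCT116 colon tumor cells with PTEN knocked out; cells exposed to compound for 60 hours before readout; potency for loss of cell viability measured by luminescence.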 It is filed as functional.
Assay [21] is described as follows: cytotoxicity toward NIH3T3 fibroblasts, dose response, counter-screen, cell-based, ATP luminescence, mouse fibroblasts (AID 2010).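 Also: cells exposed to compound for about 90 hours before reading.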 Type of assay: functional.
The nature of assay [22]: growth suppression of beta-catenin-knockout colon cells, dose response, cell-based, HCT116, human colon tumor (AID 1045).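 Also: HCT116 colon tumor cells with beta catenin knocked out; cells exposed to compound for 60 hours.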 It is filed as functional.
Another assay relates to Saccharomyces cerevisiae. Briefly: NALP1 inhibitor project selectivity study, Caspase-1/ASC signal blockade IC50 in S. cerevisiae (AID 488863). Type of assay: functional, organism-based.
Assay [23] concerns the target NACHT, LRR and PYD domains-containing protein 1 (Homo sapiens, UniProt Q9C000). Briefly: NALP1 inhibitors in yeast, dose response, luminescent (AID 488860). It is filed as functional.
In assay [24] the target is Heat shock protein HSP 90-alpha (Homo sapiens, UniProt P07900). Type of assay: functional, organism-based.
The target of assay [25] is Potassium voltage-gated channel subfamily KQT member 2 (Rattus norvegicus, UniProt O88943). The assay is described as follows: retigabine-insensitive KCNQ2 potentiators, concentration-response, dose response, cell-based, retigabine-insensitive compounds (AID 2654). It is filed as functional.
The subject of another assay is Salmon testes DNA. The assay is described as follows: DNA intercalators displacing acridine orange, dose response, artefact control for KSHV LANA DNA-binding inhibitor project, biochemical, fluorescence polarization, cherry-picked samples, set 2 (AID 504727). Also on record: species or system Salmonidae.
The next assay has as its target ORF 73 (Human herpesvirus 8, UniProt O40947). The assay is described as follows: inhibitors of C-LANA binding to LBS DNA, dose response, biochemical, fluorescence polarization, cherry-picked samples (AID 504725).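 Also: fluorescence polarization of a labeled DNA duplex reporting LANA DNA binding; potency is for inhibitors that block LANA binding to the DNA.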 Also on record: species or system Human gammaherpesvirus 8.

For orientation: EC50 means the concentration at which the effect is half-maximal. The AC50 is the concentration giving half of the maximal activity seen. For orientation: CC50 means the concentration giving 50% cytotoxicity.

T4 sequence (P09923 whole entry): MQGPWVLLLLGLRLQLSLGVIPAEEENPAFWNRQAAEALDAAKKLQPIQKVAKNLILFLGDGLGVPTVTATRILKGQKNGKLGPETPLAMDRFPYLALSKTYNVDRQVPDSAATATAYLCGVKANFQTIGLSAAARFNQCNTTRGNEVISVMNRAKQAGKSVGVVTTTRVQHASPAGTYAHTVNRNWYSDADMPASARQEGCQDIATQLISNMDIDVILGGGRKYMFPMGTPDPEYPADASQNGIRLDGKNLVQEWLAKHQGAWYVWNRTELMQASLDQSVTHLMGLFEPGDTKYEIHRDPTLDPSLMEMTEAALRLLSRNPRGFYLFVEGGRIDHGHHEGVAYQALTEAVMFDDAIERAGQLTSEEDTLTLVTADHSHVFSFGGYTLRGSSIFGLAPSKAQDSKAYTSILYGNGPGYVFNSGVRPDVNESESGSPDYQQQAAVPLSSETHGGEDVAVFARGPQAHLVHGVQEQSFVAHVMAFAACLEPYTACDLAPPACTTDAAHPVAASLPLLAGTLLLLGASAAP
T2 sequence (Q9UBE0 whole entry): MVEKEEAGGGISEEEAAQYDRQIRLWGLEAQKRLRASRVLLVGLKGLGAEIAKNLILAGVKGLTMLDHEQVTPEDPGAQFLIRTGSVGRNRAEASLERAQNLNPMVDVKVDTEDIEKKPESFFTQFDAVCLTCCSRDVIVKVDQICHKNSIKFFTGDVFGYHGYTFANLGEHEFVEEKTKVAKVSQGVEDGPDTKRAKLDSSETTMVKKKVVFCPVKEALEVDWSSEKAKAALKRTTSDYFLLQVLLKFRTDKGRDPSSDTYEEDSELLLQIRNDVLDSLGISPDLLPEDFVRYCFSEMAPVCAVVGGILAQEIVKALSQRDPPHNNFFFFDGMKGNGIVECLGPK
T2 sequence (Q9UBT2 whole entry): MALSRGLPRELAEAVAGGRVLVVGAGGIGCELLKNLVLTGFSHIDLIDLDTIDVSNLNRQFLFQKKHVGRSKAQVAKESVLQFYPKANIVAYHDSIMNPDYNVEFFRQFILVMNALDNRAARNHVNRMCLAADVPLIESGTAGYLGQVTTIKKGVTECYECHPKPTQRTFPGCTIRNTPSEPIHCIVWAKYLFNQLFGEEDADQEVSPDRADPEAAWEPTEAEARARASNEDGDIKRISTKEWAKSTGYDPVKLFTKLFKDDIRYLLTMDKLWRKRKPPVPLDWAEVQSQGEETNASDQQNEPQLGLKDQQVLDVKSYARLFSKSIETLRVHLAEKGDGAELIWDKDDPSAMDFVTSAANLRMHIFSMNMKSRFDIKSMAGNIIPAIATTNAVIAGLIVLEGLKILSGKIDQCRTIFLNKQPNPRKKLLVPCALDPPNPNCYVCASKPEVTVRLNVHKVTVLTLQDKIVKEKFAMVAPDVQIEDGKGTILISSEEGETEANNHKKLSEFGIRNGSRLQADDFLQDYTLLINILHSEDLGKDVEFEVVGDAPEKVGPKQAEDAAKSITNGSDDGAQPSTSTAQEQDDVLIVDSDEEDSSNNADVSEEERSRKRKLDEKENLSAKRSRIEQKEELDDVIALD
T6 sequence (P11940 whole entry): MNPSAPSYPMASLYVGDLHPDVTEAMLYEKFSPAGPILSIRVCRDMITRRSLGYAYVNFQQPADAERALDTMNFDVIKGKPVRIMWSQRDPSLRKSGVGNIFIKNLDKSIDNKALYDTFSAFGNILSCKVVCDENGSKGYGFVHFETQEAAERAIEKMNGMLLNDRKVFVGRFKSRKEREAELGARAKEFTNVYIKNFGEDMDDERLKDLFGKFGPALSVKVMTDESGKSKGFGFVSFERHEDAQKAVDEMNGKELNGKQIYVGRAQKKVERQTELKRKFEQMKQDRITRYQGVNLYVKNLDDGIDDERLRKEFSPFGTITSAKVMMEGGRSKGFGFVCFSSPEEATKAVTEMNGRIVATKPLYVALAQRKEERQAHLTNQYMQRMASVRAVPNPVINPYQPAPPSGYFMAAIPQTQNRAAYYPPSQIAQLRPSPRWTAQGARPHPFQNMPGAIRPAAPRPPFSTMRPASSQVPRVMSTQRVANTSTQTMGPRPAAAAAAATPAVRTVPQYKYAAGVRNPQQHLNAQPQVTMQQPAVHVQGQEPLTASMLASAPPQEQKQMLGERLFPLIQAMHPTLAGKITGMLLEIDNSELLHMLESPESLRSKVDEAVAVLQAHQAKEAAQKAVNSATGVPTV
Sequence of ORF 73 (O40947 whole entry): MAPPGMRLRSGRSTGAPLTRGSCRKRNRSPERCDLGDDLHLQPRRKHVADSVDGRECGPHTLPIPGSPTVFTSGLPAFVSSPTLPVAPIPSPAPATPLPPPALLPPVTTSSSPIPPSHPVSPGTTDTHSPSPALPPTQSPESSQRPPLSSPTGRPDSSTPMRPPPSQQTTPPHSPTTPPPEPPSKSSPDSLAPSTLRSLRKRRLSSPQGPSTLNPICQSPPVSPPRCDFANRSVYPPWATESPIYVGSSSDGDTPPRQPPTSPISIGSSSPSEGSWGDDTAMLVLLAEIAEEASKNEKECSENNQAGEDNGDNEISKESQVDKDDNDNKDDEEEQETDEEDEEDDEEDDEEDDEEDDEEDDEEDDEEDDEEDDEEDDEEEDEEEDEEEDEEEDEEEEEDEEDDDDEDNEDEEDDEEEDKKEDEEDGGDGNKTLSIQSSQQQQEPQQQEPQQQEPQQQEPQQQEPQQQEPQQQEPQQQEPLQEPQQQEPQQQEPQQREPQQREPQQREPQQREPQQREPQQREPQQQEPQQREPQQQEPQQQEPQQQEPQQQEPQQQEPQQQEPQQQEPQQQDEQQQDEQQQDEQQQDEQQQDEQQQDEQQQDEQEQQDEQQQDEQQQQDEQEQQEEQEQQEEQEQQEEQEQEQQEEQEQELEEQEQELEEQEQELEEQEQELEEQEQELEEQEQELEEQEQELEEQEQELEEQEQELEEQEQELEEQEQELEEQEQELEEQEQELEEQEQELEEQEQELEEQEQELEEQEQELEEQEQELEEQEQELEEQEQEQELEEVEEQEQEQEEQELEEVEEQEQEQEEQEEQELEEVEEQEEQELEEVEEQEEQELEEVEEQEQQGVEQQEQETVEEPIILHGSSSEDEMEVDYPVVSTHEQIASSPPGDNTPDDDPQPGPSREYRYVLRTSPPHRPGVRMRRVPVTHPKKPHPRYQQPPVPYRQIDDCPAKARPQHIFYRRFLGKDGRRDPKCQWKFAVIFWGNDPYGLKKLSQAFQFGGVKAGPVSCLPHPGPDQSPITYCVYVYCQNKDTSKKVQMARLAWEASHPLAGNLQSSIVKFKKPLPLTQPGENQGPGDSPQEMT
Sequence of Intestinal-type alkaline phosphatase (Mus musculus, UniProt P24822) (P24822 whole entry): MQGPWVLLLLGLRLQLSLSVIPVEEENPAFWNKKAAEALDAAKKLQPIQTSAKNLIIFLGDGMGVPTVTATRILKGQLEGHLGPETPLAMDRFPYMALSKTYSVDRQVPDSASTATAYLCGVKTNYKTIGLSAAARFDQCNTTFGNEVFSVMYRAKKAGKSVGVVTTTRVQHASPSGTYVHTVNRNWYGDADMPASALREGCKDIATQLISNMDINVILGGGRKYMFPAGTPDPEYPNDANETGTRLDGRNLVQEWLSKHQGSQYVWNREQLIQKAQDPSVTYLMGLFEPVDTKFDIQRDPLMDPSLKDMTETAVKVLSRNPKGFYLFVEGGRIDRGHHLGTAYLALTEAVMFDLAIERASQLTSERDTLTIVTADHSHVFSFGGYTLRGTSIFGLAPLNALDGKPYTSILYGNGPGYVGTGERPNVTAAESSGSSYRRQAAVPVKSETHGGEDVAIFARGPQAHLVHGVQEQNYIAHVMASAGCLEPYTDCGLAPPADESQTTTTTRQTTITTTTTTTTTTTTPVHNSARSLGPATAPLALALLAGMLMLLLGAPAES
Sequence of Potassium voltage-gated channel subfamily KQT member 2 (O88943 whole entry): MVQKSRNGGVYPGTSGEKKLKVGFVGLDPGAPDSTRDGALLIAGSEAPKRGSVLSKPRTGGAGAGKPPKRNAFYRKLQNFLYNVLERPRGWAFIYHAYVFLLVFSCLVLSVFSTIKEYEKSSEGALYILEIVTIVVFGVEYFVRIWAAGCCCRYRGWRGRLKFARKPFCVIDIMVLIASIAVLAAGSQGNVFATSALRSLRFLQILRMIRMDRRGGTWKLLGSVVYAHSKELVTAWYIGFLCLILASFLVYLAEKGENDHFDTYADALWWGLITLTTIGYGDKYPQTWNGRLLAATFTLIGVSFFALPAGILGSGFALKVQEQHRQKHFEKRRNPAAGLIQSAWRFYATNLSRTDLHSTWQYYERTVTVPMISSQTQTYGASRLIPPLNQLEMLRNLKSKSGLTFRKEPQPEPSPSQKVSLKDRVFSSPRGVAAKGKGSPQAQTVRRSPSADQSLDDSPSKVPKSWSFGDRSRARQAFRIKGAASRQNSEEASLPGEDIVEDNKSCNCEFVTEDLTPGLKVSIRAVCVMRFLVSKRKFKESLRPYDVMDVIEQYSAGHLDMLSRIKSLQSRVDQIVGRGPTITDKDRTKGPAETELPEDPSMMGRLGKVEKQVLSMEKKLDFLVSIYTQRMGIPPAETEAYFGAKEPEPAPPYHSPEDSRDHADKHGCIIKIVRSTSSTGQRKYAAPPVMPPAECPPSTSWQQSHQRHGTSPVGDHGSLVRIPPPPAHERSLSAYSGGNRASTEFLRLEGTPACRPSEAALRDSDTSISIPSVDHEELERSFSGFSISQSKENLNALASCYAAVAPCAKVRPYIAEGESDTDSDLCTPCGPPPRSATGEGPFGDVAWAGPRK
Sequence of Phosphoethanolamine/phosphocholine phosphatase (Q8TCT1 whole entry): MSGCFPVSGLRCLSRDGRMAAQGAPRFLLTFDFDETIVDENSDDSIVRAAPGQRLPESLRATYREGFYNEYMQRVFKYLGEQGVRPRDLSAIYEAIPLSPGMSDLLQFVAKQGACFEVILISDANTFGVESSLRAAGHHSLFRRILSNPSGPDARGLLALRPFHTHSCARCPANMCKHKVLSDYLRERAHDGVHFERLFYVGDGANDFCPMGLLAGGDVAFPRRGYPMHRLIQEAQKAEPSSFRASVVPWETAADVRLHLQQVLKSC

For the molecule `NC(CO)C(=O)NNCc1ccc(O)c(O)c1O` (centres undefined) [BENSERAZIDE HYDROCHLORIDE], the EC50 in assay [1] was 37.5 µM (active); in assay [3], 0.112 µM (active); in [6] it was 5.47 µM (active); in [7] it was 8.88 µM (active); in [8], > 100 µM (inactive). Besides, the IC50 on SUMO-activating enzyme [2] was 1.66 µM (active); on SUMO-activating enzyme [4] it was 23.2 µM (active); in assay [5], 50.9 µM (active); in [9] it was > 66 µM (inactive); in assay [10] it was 45 µM (inactive). Further, in assay [11], the concentration at half-maximal activity (AC50) is 96.7 µM (active).

On to `COC(=O)c1cccc(-n2sc3ccccc3c2=O)c1`, for which the IC50 is 14 µM (active) in assay [12]; 15.4 µM (active) on Phosphomannomutase 2; 0.824 µM (active) in assay [13]; > 100 µM (inactive) in assay [14]; 36.9 µM (active) in assay [16]. In addition, in assay [15], the CC50 is 100 µM (active).

`Cc1ccc(-n2nnnc2C(Cl)c2nnnn2-c2ccc(C)cc2)cc1`: the EC50 in assay [17] was > 160 µM (inactive); in assay [18], > 38 µM (not active); in [19], 3.31 µM (active); in assay [20] it was 17.6 µM (active); in assay [21] it was > 60 µM (not active); in assay [22], 17.5 µM (active). In addition, the IC50 in the assay with Saccharomyces cerevisiae was 6.59 µM (active); in assay [23], 11 µM (active). The AC50 in [24] was 0.635 µM (active).

As for `Cc1cccc(NC(=O)Nc2cccnc2)c1`, in assay [25], the EC50 was 16.8 µM (active).

`Cc1ccc(N(CC(=O)N2CCOCC2)S(C)(=O)=O)cc1`: the AC50 is 70.1 µM (active) in the assay on Salmon testes DNA and 20.1 µM (active) on ORF 73.
